Tests used:
Details in all cases: 48 h
CU-ACC2 [1] = assay: area under concentration-response curve (viability) (AUC (a.u.)); higher = less active
How it was run: (§1)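 After 48 h of treatment with 23 nL of each library compound at 11 concentrations, three adrenocortical carcinoma cell lines in 1,536-well plates (500–1,000 cells/well, 5 µL medium) were given CellTiter-Glo for 15 minutes at room temperature. Luminescence was then read and normalised per plate to vehicle and empty-well controls. AC50 and area under the curve were drawn from fitted concentration-response curves of inhibitory or non-responding classes only.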

NCI-H295R [2] = assay: as above
How it was run: as §1

CU-ACC1 [3] = assay: as above
How it was run: as §1

CU-ACC2 [4] = assay: AC50 viability; higher = less potent
How it was run: as §1

NCI-H295R [5] = assay: AC50 viability; higher = less potent
How it was run: as §1

CU-ACC1 [6] = assay: AC50 viability; higher = less potent
How it was run: as §1

SMILES | area under concentration-response curve (CU-ACC2 [1]) | area under concentration-response curve (NCI-H295R [2]) | area under concentration-response curve (CU-ACC1 [3]) | AC50 viability (CU-ACC2 [4]) [µM] | AC50 viability (NCI-H295R [5]) [µM] | AC50 viability (CU-ACC1 [6]) [µM]
CC1(C)CC(=O)c2c(C(F)(F)F)nn(-c3ccc(C(N)=O)c(NC4CCC(OC(=O)CN)CC4)c3)c2C1 (centres undefined) | 426 | 431 | 362 | 0.417 | 1.05 | 1.05
CN1CCN(Cc2ccc(NC(=O)Nc3ccc(Oc4cc(NC(=O)C5CC5)ncn4)cc3)cc2C(F)(F)F)CC1 | 337 | 428 | 426 | 0.468 | 2.63 | 1.66
Nc1nc(Nc2ccc([S+](N)(=O)[O-])cc2)nn1C(=O)c1c(F)cccc1F | 466 | 488 | 443 | 3.32 | 20.9 | 11.8
CC(C)C[C@H](NC(=O)CNC(=O)c1cc(Cl)ccc1Cl)B(O)O | 373 | 408 | 329 | 0.209 | 0.105 | 0.166
COc1ccc(CCN(C)CCCOc2ccc([S+](=O)([O-])c3c(C(C)C)c4ccccc4n3C)cc2)cc1OC | 565 | 427 | 448 | 20.9 | 13.2 | 10.5
C=C1C(=O)O[C@@H]2[C@H]3O[C@]3(C)CC/C=C(\C)CC[C@@H]12 | 522 | 497 | 375 | 7.42 | 9.34 | 14.8
CC1=C2N=C([NH]C2=CC(=C1)N3CCOCC3)\C4=C(NC[C@@H](O)C5=CC=CC(=C5)Cl)\C=C/NC4=O | 277 | 303 | 342 | 0.833 | 0.468 | 0.00331
CCC(C1CCC(C)C(O1)C(C)C(O)C(C)C(=O)C(CC)C2OC\3(O[C@]4(CC[C@@](C)(O4)C5CC[C@@](O)(CC)C(C)O5)C(O)\C=C3)C(C)CC2C)C([O-])=O (some centres undefined) | 473 | 456 | 291 | 5.9 | 8.33 | 5.25
CCN(CC)CCNC(=O)c1ccc2nc(-c3ccccc3)c(-c3ccc(CN4CCC(n5c(=O)[nH]c6ccccc65)CC4)cc3)nc2c1 | 479 | 440 | 444 | 7.42 | 9.34 | 9.34
COc1cc(N2CCC(N3CCN(C)CC3)CC2)ccc1Nc1ncc(Cl)c(Nc2ccccc2[S+](=O)([O-])C(C)C)n1 | 479 | 432 | 436 | 5.25 | 2.95 | 11.8
CCn1nnc2c(N3CCOCC3)nc(-c3ccc(NC(=O)Nc4ccc(C(=O)N5CCN(C)CC5)cc4)cc3)nc21 | 434 | 453 | 357 | 0.468 | 5.9 | 1.18
COC1=CC2=NC=CC(=C2C=C1)OC3=CN=C(NC(=O)C/4=C(C)/N(CC(C)(C)O)N(C4=O)C5=CC=CC=C5)C=C3 | 350 | 369 | 354 | 18.6 | 14.8 | 23.5
CCC(=O)N1CCN(CC1)C2=C(C=C(C=C2)N3C(=O)\C=C/C4=C3C5=CC(=CC=C5N=C4)C6=CN=C7C=CC=CC7=C6)C(F)(F)F | 362 | 326 | 305 | 0.0456 | 0.129 | 0.0102
Cc1cc(Nc2cc(N3CCN(C)CC3)nc(/C=C/c3ccccc3)n2)n[nH]1 | 369 | 414 | 401 | 13.2 | 6.61 | 11.8
CN(C)C/C=C/C(=O)Nc1ccc(C(=O)Nc2cccc(Nc3ncc(Cl)c(-c4c[nH]c5ccccc45)n3)c2)cc1 | 275 | 406 | 363 | 0.332 | 1.48 | 0.661
COC1=C(OC)C=C\2C(=C1)C(=O)N(CCCNCCO)\C3=C2C(=O)C4=C3C=C5OCOC5=C4 | 396 | 407 | 364 | 4.17 | 7.42 | 5.9
COc1cc(O)c2c(c1)C1OC1C[C@H](O)[C@H](O)C(=O)/C=C\C[C@H](C)OC2=O (some centres undefined) | 492 | 435 | 429 | 16.6 | 14.8 | 6.61
C=CC(=O)Nc1cc2c(Nc3ccc(F)c(Cl)c3)ncnc2cc1C#CC(C)(C)N1CCN(C)CC1 | 520 | 477 | 307 | 7.42 | 7.42 | 10.5
CN(C)C/C=C/C(=O)Nc1ccc(C(=O)N2CCC[C@@H](Nc3ncc(Cl)c(-c4c[nH]c5ccccc45)n3)C2)cc1 | 358 | 489 | 399 | 2.63 | 14.8 | 5.25
C[S+](=O)([O-])N1CCN(Cc2cc3nc(-c4cccc5[nH]ncc45)nc(N4CCOCC4)c3s2)CC1 | 402 | 406 | 420 | 16.6 | 0.661 | 0.934
Cc1cc(CN2CCN(c3c(Br)cnc4[nH]c(-c5ccc(N6CCN(C)CC6)cc5)nc34)CC2)no1 | 478 | 425 | 459 | 20.9 | 26.3 | 0.934
CC(=O)Nc1ccc([C@H](C)C(=O)Nc2ncc(C(C)C)s2)cc1 | 376 | 485 | 448 | 5.25 | 18.6 | 9.34
O=C(Nc1ccccc1-c1cn2c(CN3CCNCC3)csc2n1)c1cnc2ccccc2n1 | 366 | 358 | 367 | 7.42 | 2.95 | 6.61
Cc1cc2cc(Oc3ccnc(Nc4cccc(C[S+](=O)([O-])NCCN(C)C)c4)n3)ccc2[nH]1 | 480 | 468 | 493 | 23.5 | 23.5 | 20.9

Source: the supplement of paper PMC10949913
